# Literature values in patent publication EP4603079A1, “COMPOSITION COMPRISING A PEPTIDE HAVING AN ISOELECTRIC POINT OF LESS THAN 6.5 AND A CO-POLYAMINO ACID BEARING CARBOXYLATE CHARGES AND HYDROPHOBIC RADICALS” (Adocia, priority 2024, dated 2025).
# Biological target: T1, amylin receptor 3 (AMYR3) (Homo sapiens, UniProt O60896+P30988)
# T1 sequence (P30988 25-474): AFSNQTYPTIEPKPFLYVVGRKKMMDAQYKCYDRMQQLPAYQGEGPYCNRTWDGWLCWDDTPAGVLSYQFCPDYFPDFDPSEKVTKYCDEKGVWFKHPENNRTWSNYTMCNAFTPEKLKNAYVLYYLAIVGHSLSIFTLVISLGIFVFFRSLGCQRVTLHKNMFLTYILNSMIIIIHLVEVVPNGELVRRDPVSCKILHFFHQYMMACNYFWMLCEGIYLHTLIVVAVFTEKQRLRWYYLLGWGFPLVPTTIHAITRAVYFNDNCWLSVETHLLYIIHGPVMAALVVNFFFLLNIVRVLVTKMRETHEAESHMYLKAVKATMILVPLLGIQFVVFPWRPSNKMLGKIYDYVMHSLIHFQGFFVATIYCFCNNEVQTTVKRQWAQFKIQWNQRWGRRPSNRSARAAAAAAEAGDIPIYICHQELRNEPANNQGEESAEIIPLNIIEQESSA
# T1 sequence (O60896 24-148): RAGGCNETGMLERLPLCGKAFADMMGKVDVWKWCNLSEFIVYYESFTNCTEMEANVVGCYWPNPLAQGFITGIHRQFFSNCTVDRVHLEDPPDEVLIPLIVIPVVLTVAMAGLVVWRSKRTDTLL
# Conditions: procedure of WO2022129526, Assay 2; Tables 4b and 4c there; read-out: EC50value
substance,measurement,value
"N-alpha-[(S)-4-Carboxy-4-(19-carboxynonadecanoylamino)butyryl]-[Glu14,Arg17,Pro37]-pramlintide [cagrilintide]",EC50,~0.011 nM
